# Measurements as given in patent US20100129478A1, “Plant Extracts and Methods and Uses Therefore” (priority 2005, published 2010).
# Tested on: human hepatic cell line HepG2
# Experiment: Anti-cancer assay: cytotoxicity on HepG2 cells, trypan blue counting
# Assay type: cell-based
# Protocol: The cells were seeded at a density of 2.5×10^5 cell per ml in a 24 well plate. The cells were allowed to attach for 2 hour before adding the extracts at a concentration of 10 μg/ml. […] The cell viability was determined after 24 hours.
# Seed HepG2 at a cell density of 2.5×10^5 cells per ml. […] Incubate in 5% CO2 incubator at 37° C. for 48 hour. Trypsinize cell. Mix with 1 part trypan blue and 4 parts PBS and count the viable cells and the non-viable cells by counting the cells that has taken typan blue (non-viable cells) and the ones that has excluded it (viable cells).
compound,measurement,value
O=C1O[C@H]([C@@H](O)CO)C(O)=C1O [ascorbic acid],No. of live cells,66.5
